Assay: Surface activity, K12 Krüss tensiometer, automatic titration for CMC
Assay type: physicochemical
Description: Surface activity was measured with a K12 Krüss tensiometer at 25° C. in deionized water. Automatic titration was used to determine the critical micelle concentration (CMC). No pH adjustment was made for the measurement.

critical micelle concentration (CMC): about 120 mg/L
Substance: dodecyl sulfosuccinate
